Partial thromboplastic times data for one substance are collected here from patent US5472942A, “Anti-thrombins” (priority 1988, dated 1995).

The subject of the test is human blood. Description: Partial thromboplastic time. To be noted: equivalent doses; anti-thrombin of the invention compared with hirudin. From the text:
The anti-thrombin according to the invention and hirudin do however, have similar partial thromboplastic times for equivalent doses.

As to “hirudin: thrombin-specific polypeptide of 65 amino acids from Hirudo medicinalis [reference compound]”, the partial thromboplastic times entry is on record as “similar”.
